Paper PMC8583042, “New Hybrid Compounds Combining Fragments of Usnic Acid and Thioether Are Inhibitors of Human Enzymes TDP1, TDP2 and PARP1” (International Journal of Molecular Sciences, 2021)

Molecular target: T1, TDP1 (Homo sapiens, UniProt Q9NUW8)
T1 construct: made in house; host or cells: E. coli
Test: Steady-state kinetics of the TDP1 reaction (Vmax, KM, type of inhibition)
Type: biochemical
Parameters: Vmax: unit not given here
Excerpt: The reversible enzyme inhibitors were classified as competitive, uncompetitive, non-competitive, or mixed, depending on the binding of the enzyme, to the enzyme–substrate complex (ES) or to the enzyme–substrate–inhibitor triple complex (ESI). The enzyme could bind the inhibitor at the different steps of catalysis (before or after the substrate) and at the substrate-binding site or another site. The effect of the inhibitor on enzymatic activity can be analyzed using graphical representations of the Michaelis–Menten equation. […] TDP1 has a catalytic pocket with a narrow positively charged cleft where it binds DNA and with a relatively large cleft that contains a mixed charge distribution for the TOP1 fragment binding. It is known that TDP1 hydrolyzes the DNA–TOP1 adducts via two coordinated nucleophilic attacks of two His residues (His263 and His493) with the covalent intermediate complex formation. The enzyme reaction catalyzed by TDP1 could be inhibited in two steps: the first one is the inhibition of the TDP1 binding to the DNA substrate (the nucleophilic attack of His263). The second step is releasing TDP1 from the transition complex (nucleophilic attack by a water molecule activated by His493). Inhibition of the second step prevents the release of the DNA 3′-phosphate product from the DNA–TDP1 complex. Spinocerebellar ataxia with axonal neuropathy (SCAN1) is a neurological disease that is caused by a TDP1 His493Arg mutation. This mutation prevents the second step of hydrolysis of the intermediate complex and the enzyme remains covalently bound to DNA [47]. The uncompetitive inhibitors also prevent the second step of the reaction, stabilizing the enzyme–DNA covalent complex, which can lead to the accumulation of the single-strand breaks in the cell.
The biosensor (5′-[FAM] AAC GTC AGGGTC TTC C [BHQ]-3′) was synthesized in the Laboratory of Nucleic Acid Chemistry at the Institute of Chemical Biology and Fundamental Medicine (Novosibirsk, Russia) and was used for TDP1 enzyme activity real-time fluorescence detection. The reaction mixture (200 μL) contained a TDP1 reaction buffer (50 mM Tris-HCl, pH 8.0, 50 mM NaCl, and 7 mM β-mercaptoethanol), 50 nM oligonucleotide, varied concentrations of the tested compounds, and purified TDP1 in a final concentration 1.5 nM. The reaction mixtures were incubated at a constant temperature of 26 °C in a POLARstar OPTIMA fluorimeter (BMG LABTECH, GmbH, Ortenberg, Germany). Fluorescence intensity was measured (Ex485/Em520 nm) every 1 min for 10 min. The average values of the half maximal inhibitory concentration (IC50) were determined using an eleven-point concentration response curve and calculated using MARS Data Analysis 2.0 (BMG LABTECH). The 50% inhibitory concentration (IC50) was defined as the concentration of the compound that inhibited 50% of the enzyme activity when compared to the untreated controls. At least three independent experiments were carried out to obtain the IC50 values. To determine the kinetic parameters of the TDP1 enzymatic reaction, the apparent maximum rate of enzymatic reaction (Vmax), Michaelis constant (KM), possible inhibition mechanism, and steady-state kinetic experiments were carried out at 5 fixed concentrations of the substrate, with variation in the inhibitor concentrations. The standard reaction mixtures (200 μL) contained reaction buffer components; 50 nM, 100 nM, 200 nM, 500 nM, or 1000 nM substrate; an inhibitor; and 1.5 nM recombinant human TDP1. The initial kinetic curves were obtained in three independent experiments and statistically processed in OriginPro 8.6.0 (OriginLab, Northampton, MA, USA).
Table S25 Dependence of TDP1 reaction values V max and K M on the concentration of inhibitors
[7g], mM V max Standard Error K M Standard Error
[7h], mM V max Standard Error K M Standard Error
[10a], mM V max Standard Error K M Standard Error
[10b], mM V max Standard Error K M Standard Error

T1 sequence (Q9NUW8 whole entry): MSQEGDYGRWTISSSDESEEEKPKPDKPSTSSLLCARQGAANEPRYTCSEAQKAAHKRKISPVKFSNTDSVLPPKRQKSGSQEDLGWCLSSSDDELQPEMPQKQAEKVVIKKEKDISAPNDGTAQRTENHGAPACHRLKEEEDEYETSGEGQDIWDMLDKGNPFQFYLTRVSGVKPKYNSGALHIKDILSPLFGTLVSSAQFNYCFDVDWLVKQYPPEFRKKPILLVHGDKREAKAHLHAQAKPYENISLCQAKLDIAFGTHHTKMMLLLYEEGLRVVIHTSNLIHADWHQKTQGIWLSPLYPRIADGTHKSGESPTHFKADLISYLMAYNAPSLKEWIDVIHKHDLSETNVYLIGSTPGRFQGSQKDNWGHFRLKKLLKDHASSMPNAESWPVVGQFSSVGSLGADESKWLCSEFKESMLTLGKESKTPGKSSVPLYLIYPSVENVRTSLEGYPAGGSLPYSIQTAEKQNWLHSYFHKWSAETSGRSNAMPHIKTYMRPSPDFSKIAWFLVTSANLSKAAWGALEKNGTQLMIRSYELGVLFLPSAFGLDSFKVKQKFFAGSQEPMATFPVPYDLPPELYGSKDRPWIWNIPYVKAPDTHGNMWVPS

Compound: CC(=O)C1=C(O)C=C2Oc3c(C(=O)C[S+]([O-])c4nc5ccccc5s4)c(O)c(C)c(O)c3[C@@]2(C)C1=O (stereo partly drawn) [10a, (2R)-4-acetyl-10-[2-(1,3-benzothiazole-2-sulfinyl)acetyl]-5,11,13-trihydroxy-2,12-dimethyl-8-oxatricyclo[7.4.0.0^2,7]trideca-1(13),4,6,9,11-pentaen-3-one]
- Vmax (inhibitor 0.8 mM (so in the source)): 27.8
- Vmax (inhibitor 1.6 mM (so in the source)): 26.5
- Vmax (inhibitor 3.2 mM (so in the source)): 25.1
- Vmax (inhibitor 6.4 mM (so in the source)): 21.3
- Type of inhibition of TDP1 enzyme reaction (steady-state conditions, fall in both Vmax and KM with increasing inhibitor): uncompetitive
